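Results reflect a 48-hour exposure of cells in 96-well plates to compound at five concentrations. TGI is the concentration that stops growth completely.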
Assays:
Experiment in all cases: NCI tumour cell line growth inhibition, 48 h
[1] = tested on: COLO 205 colon
[2] = tested on: NCI-H23 lung
[3] = tested on: NCI-H522 lung
[4] = tested on: KM12 colon
[5] = tested on: SK-OV-3 ovarian
[6] = tested on: SR leukemia
[7] = tested on: MALME-3M melanoma
[8] = tested on: NCI-H460 lung
[9] = tested on: EKVX NSCLC
[10] = tested on: DLD-1 colon
[11] = tested on: CCRF-CEM leukemia
[12] = tested on: HCT-116 colon
[13] = tested on: OVCAR-8 ovarian
[14] = tested on: RPMI-8226 leukemia
[15] = tested on: SK-MEL-28 melanoma
[16] = tested on: UACC-257 melanoma
[17] = tested on: SK-MEL-2 melanoma
[18] = tested on: HOP-18 NSCLC
[19] = tested on: HOP-62 NSCLC
[20] = tested on: DMS 114 small cell lung
[21] = tested on: HCT-15 colon
[22] = tested on: HL-60(TB) leukemia
[23] = tested on: OVCAR-5 ovarian
[24] = tested on: UO-31 renal
[25] = tested on: DMS 273 small cell lung
[26] = tested on: SW-620 colon
[27] = tested on: K-562 leukemia
[28] = tested on: U251 CNS
[29] = tested on: SK-MEL-5 melanoma
[30] = tested on: ACHN renal
[31] = tested on: SF-295 CNS
[32] = tested on: SF-268 CNS
[33] = tested on: A498 renal
[34] = tested on: NCI-H226 lung
[35] = tested on: SF-539 CNS
[36] = tested on: UACC-62 melanoma
[37] = tested on: HT29 colon
[38] = tested on: SNB-75 CNS
[39] = tested on: HOP-92 NSCLC
[40] = tested on: LXFL 529 NSCLC
[41] = tested on: HCC-2998 colon
[42] = tested on: IGROV1 ovarian
[43] = tested on: OVCAR-4 ovarian
[44] = tested on: OVCAR-3 ovarian
[45] = tested on: SNB-78 CNS
[46] = tested on: TK-10 renal
[47] = tested on: MOLT-4 leukemia
[48] = tested on: LOX IMVI melanoma
[49] = tested on: 786-0 renal
[50] = tested on: SNB-19 CNS
[51] = tested on: A549 NSCLC
[52] = tested on: M19-MEL melanoma
[53] = tested on: SN12C renal
[54] = tested on: M14 melanoma
[55] = tested on: RXF 393 renal
[56] = tested on: MCF7 breast
[57] = tested on: DU-145 prostate
[58] = tested on: BT-549 breast
[59] = tested on: HS 578T breast
[60] = tested on: T-47D breast
[61] = tested on: MDA-MB-435
[62] = tested on: CAKI-1 renal
[63] = tested on: MDA-MB-231 breast
[64] = tested on: PC-3 prostate
[65] = tested on: NCI/ADR-RES ovarian
[66] = tested on: MDA-N

COC(CC1(OC)OC(=O)C=C1N)OC (centres undefined)
TGI [1]: > 100 µM | TGI [2]: > 100 µM | TGI [3]: > 100 µM | TGI [4]: > 100 µM | TGI [5]: > 100 µM | TGI [6]: > 100 µM | TGI [7]: > 100 µM | TGI [8]: > 100 µM | TGI [9]: > 100 µM | TGI [10]: > 100 µM | TGI [11]: > 100 µM | TGI [12]: > 100 µM | TGI [13]: > 100 µM | TGI [14]: > 100 µM | TGI [15]: > 100 µM | TGI [16]: > 100 µM | TGI [17]: > 100 µM | TGI [18]: > 100 µM | TGI [19]: > 100 µM | TGI [20]: > 100 µM | TGI [21]: > 100 µM | TGI [22]: > 100 µM | TGI [23]: > 100 µM | TGI [24]: > 100 µM | TGI [25]: > 100 µM | TGI [26]: > 100 µM | TGI [27]: > 100 µM | TGI [28]: > 100 µM | TGI [29]: > 100 µM | TGI [30]: > 100 µM | TGI [31]: > 100 µM | TGI [32]: > 100 µM | TGI [33]: > 100 µM | TGI [34]: > 100 µM | TGI [35]: > 100 µM | TGI [36]: > 100 µM | TGI [37]: > 100 µM | TGI [38]: > 100 µM | TGI [39]: > 100 µM | TGI [40]: > 100 µM | TGI [41]: > 100 µM | TGI [42]: > 100 µM | TGI [43]: > 100 µM | TGI [44]: > 100 µM | TGI [45]: > 100 µM | TGI [46]: > 100 µM | TGI [47]: > 100 µM | TGI [48]: > 100 µM | TGI [49]: > 100 µM | TGI [50]: > 100 µM | TGI [51]: > 100 µM | TGI [52]: > 100 µM | TGI [53]: > 100 µM | TGI [54]: > 100 µM

c1cc2c(c(NC3=NCCN3)c1)CCCC2
TGI [1]: > 100 µM | TGI [2]: > 100 µM | TGI [3]: > 100 µM | TGI [4]: > 100 µM | TGI [5]: > 100 µM | TGI [6]: > 100 µM | TGI [7]: > 100 µM | TGI [55]: > 100 µM | TGI [8]: > 100 µM | TGI [9]: > 100 µM | TGI [56]: > 100 µM | TGI [57]: > 100 µM | TGI [11]: > 100 µM | TGI [12]: > 100 µM | TGI [13]: > 100 µM | TGI [14]: > 100 µM | TGI [15]: > 100 µM | TGI [16]: > 100 µM | TGI [17]: > 100 µM | TGI [58]: > 100 µM | TGI [19]: > 100 µM | TGI [59]: > 100 µM | TGI [21]: > 100 µM | TGI [22]: > 100 µM | TGI [23]: > 100 µM | TGI [60]: > 100 µM | TGI [26]: > 100 µM | TGI [27]: > 100 µM | TGI [28]: > 100 µM | TGI [29]: > 100 µM | TGI [61]: > 100 µM | TGI [30]: > 100 µM | TGI [31]: > 100 µM | TGI [62]: > 100 µM | TGI [32]: > 100 µM | TGI [33]: > 100 µM | TGI [34]: > 100 µM | TGI [35]: > 100 µM | TGI [36]: > 100 µM | TGI [63]: > 100 µM | TGI [37]: > 100 µM | TGI [38]: > 100 µM | TGI [39]: > 100 µM | TGI [42]: > 100 µM | TGI [64]: > 100 µM | TGI [43]: > 100 µM | TGI [44]: > 100 µM | TGI [46]: > 100 µM | TGI [47]: > 100 µM | TGI [48]: > 100 µM | TGI [49]: > 100 µM | TGI [65]: > 100 µM | TGI [50]: > 100 µM | TGI [51]: > 100 µM | TGI [53]: > 100 µM | TGI [66]: > 100 µM | TGI [54]: > 100 µM

CO/N=C(\C)c1cccc(Nc2nc3ccccc3c3occc23)c1
TGI [1]: 24.5 µM | TGI [4]: 24.5 µM | TGI [5]: 27.1 µM | TGI [6]: 34.2 µM | TGI [7]: 29.7 µM | TGI [55]: 27.2 µM | TGI [8]: 29.6 µM | TGI [9]: 26.8 µM | TGI [56]: 36.8 µM | TGI [57]: 30.8 µM | TGI [11]: 37.7 µM | TGI [12]: 23.8 µM | TGI [13]: 33.4 µM | TGI [14]: 40.8 µM | TGI [15]: 27.6 µM | TGI [16]: 3.69 µM | TGI [58]: 26.8 µM | TGI [19]: 28.7 µM | TGI [59]: 27.2 µM | TGI [21]: 24.5 µM | TGI [22]: 59.5 µM | TGI [23]: 27.6 µM | TGI [60]: 31.3 µM | TGI [27]: 38.2 µM | TGI [28]: 33.2 µM | TGI [29]: 28.7 µM | TGI [61]: 25.4 µM | TGI [30]: 27.9 µM | TGI [31]: 25.9 µM | TGI [62]: 25.4 µM | TGI [32]: 32.5 µM | TGI [33]: 17.3 µM | TGI [34]: 7.38 µM | TGI [35]: 26.9 µM | TGI [36]: 2.18 µM | TGI [63]: 22.8 µM | TGI [37]: 17.6 µM | TGI [38]: 29.1 µM | TGI [39]: 20.3 µM | TGI [41]: 28.8 µM | TGI [64]: 28.2 µM | TGI [43]: 31.8 µM | TGI [44]: 33.1 µM | TGI [46]: 26 µM | TGI [47]: 37.3 µM | TGI [48]: 31.6 µM | TGI [49]: 26.7 µM | TGI [65]: 30.7 µM | TGI [50]: 31 µM | TGI [51]: 30 µM | TGI [53]: 26.9 µM | TGI [66]: 28.5 µM | TGI [54]: 30.7 µM

O=C(O)c1nc2ccccc2nc1NCc1ccc(F)cc1
TGI [1]: 93.5 µM | TGI [2]: > 100 µM | TGI [3]: > 100 µM | TGI [4]: > 100 µM | TGI [6]: > 100 µM | TGI [55]: > 100 µM | TGI [8]: > 100 µM | TGI [9]: > 100 µM | TGI [56]: > 100 µM | TGI [57]: > 100 µM | TGI [11]: > 100 µM | TGI [12]: > 100 µM | TGI [13]: > 100 µM | TGI [14]: > 100 µM | TGI [15]: > 100 µM | TGI [16]: > 100 µM | TGI [17]: > 100 µM | TGI [58]: > 100 µM | TGI [19]: > 100 µM | TGI [59]: > 100 µM | TGI [21]: 42.8 µM | TGI [22]: > 100 µM | TGI [23]: > 100 µM | TGI [24]: > 100 µM | TGI [60]: > 100 µM | TGI [26]: > 100 µM | TGI [27]: > 100 µM | TGI [28]: > 100 µM | TGI [29]: > 100 µM | TGI [61]: > 100 µM | TGI [31]: > 100 µM | TGI [62]: > 100 µM | TGI [32]: > 100 µM | TGI [33]: > 100 µM | TGI [34]: > 100 µM | TGI [35]: > 100 µM | TGI [36]: > 100 µM | TGI [63]: > 100 µM | TGI [37]: > 100 µM | TGI [38]: > 100 µM | TGI [39]: > 100 µM | TGI [41]: > 100 µM | TGI [42]: > 100 µM | TGI [64]: > 100 µM | TGI [44]: > 100 µM | TGI [46]: > 100 µM | TGI [47]: > 100 µM | TGI [48]: > 100 µM | TGI [49]: > 100 µM | TGI [65]: > 100 µM | TGI [50]: > 100 µM | TGI [51]: > 100 µM | TGI [53]: > 100 µM | TGI [66]: > 100 µM | TGI [54]: > 100 µM
